Data from the NIST ThermoML archive (doi:10.1016/j.jct.2015.01.005).

Assay: molar heat capacity at saturation pressure
Conditions: Crystal 2, Small (less than 1 g) adiabatic calorimetry

O[C@@H]1[C@@H](O)[C@@H]2OC[C@@H](O2)[C@H]1O [1,6-anhydro-β-D-glucopyranose]
Conditions	molar heat capacity [J/K/mol]
195.77 K	122.5
197.79 K	123.7
199.82 K	124.9
201.86 K	126.1
203.89 K	127.3
205.92 K	128.5
207.96 K	129.7
209.99 K	130.9
212.02 K	132.1
214.06 K	133.3
216.09 K	134.5
218.13 K	135.7
220.17 K	137
222.21 K	138.2
224.25 K	139.4
226.29 K	140.7
228.33 K	141.9
230.36 K	143.2
232.4 K	144.5
234.45 K	145.8
236.49 K	147
238.53 K	148.3
240.57 K	149.6
242.62 K	150.8
244.66 K	152.1
246.7 K	153.4
248.74 K	154.7
250.79 K	156.1
252.83 K	157.3
254.87 K	158.6
256.92 K	160
258.96 K	161.3
260.23 K	162.2
261.01 K	162.6
262.15 K	163.5
263.05 K	163.9
264.2 K	164.7
265.1 K	165.3
266.25 K	166
267.14 K	166.6
268.29 K	167.4
269.19 K	167.9
270.34 K	168.8
271.23 K	169.2
272.38 K	170.1
273.28 K	170.7
274.43 K	171.3
275.32 K	172
276.48 K	172.8
277.37 K	173.3
278.52 K	174.2
279.42 K	174.8
280.57 K	175.4
281.47 K	176.1
282.61 K	176.8
283.51 K	177.3
284.66 K	178.2
285.56 K	178.8
286.7 K	179.6
287.61 K	180.1
288.75 K	180.9
289.65 K	181.5
290.79 K	182.4
291.7 K	182.9
292.84 K	183.6
293.74 K	184.3
294.88 K	185.1
295.79 K	185.6
296.92 K	186.3
297.83 K	187
298.97 K	187.9
299.88 K	188.4
301.01 K	189.4
301.92 K	189.8
303.05 K	190.6
303.97 K	191.3
305.1 K	192.1
306.02 K	192.6
307.14 K	193.5
308.06 K	194.1
309.19 K	195.1
310.11 K	195.5
311.24 K	196.5
312.16 K	197
313.28 K	197.9
314.21 K	198.4
315.33 K	199.3
316.26 K	199.9
317.38 K	200.9
318.31 K	201.4
319.43 K	202.3
320.36 K	202.9
321.48 K	203.7
322.42 K	204.4
323.53 K	205.4
324.47 K	206
325.58 K	206.9
326.52 K	207.5
327.64 K	208.4
328.57 K	209.1
329.69 K	210.1
330.63 K	210.6
331.74 K	211.7
332.69 K	212.3
333.8 K	213.3
334.74 K	214
335.85 K	215.1
336.8 K	215.7
337.91 K	216.8
338.86 K	217.5
339.97 K	218.6
340.91 K	219.3
342.02 K	220.5
342.97 K	221.2
344.08 K	222.5
345.03 K	223.2
346.14 K	224.6
347.09 K	225.4
348.19 K	226.9
349.14 K	227.7
350.25 K	229.3
351.21 K	230.1
352.31 K	231.9
353.27 K	232.8
354.37 K	234.7
355.33 K	235.6
356.43 K	237.6
357.38 K	238.7
358.48 K	240.7
359.44 K	242.1
360.54 K	244.1
361.49 K	245.9
362.59 K	248.2
363.55 K	249.9
364.64 K	252.8
365.6 K	255.1
366.69 K	258.7
367.64 K	261.8
368.73 K	265.9
